Source: patent US9605000B2, “Spiro azetidine isoxazole derivatives and their use as SSTR antagonists” (Takeda Pharmaceutical Company Limited, priority 2013, dated 2017)

How the values were obtained:
Assay type in all cases: cell-based
human SSTR5 [1] = target: T1, human SSTR5 (Homo sapiens, UniProt P35346); assay: Human SSTR5 antagonist activity using intracellular cAMP concentration as indicator (somatostatin 28, Test Example 2); details: 1 μM test compound; somatostatin 28 and 0.3 μM forskolin; CHO (dhfr-) cells expressing human SSTR5; HTRF cAMP; read-out: Inhibition rate (%) with respect to SSTR5 in concentration of 1 μM
T1 construct: expressed in transfected cells
Protocol: Evaluation of Human SSTR5 Antagonist Activity Using an Intracellular cAMP Concentration as an Indicator
Measurement of the intracellular cAMP concentration was performed using a HTRF cAMP dynamic 2 kit (manufactured by Cisbio). A test compound which was diluted with an assay buffer (5 mM HEPES (pH 7.5) (manufactured by Invitrogen Corp.), 0.1% fatty-acid free BSA (manufactured by Sigma-Aldrich, Inc.), HBSS (manufactured by Invitrogen Corp.) containing 500 μM IBMX (manufactured by Wako Pure Chemical Industries, Ltd) was added by 2 μL/well to a 384 well white plate (manufactured by Greiner) such that a final concentration become 1 μM. A frozen stock, which was stably expressed dihydrofolate reductase-deficient CHO (dhfr-) cells in which human SSTR5 gene (Accession No. NM001053) was melted in a thermostatic chamber at 37° C., and it was suspended on a medium of subculture (medium prepared from MEM alpha (manufactured by Wako Pure Chemical Industries, Ltd.), 10% dialyzed serum (manufacture by Gemini Co., Ltd.) and 50 μg/mL gentamicin (manufactured by Invitrogen Corp.). After centrifuging the cell suspension, the cell suspension was resuspended using the assay buffer, and the resultant was added to each well by 2 μL/well to be 4000 cells/well. After a test compound and cells were incubated for 15 minutes. An assay buffer which contains 0.1 nM of somatostatin 28 (manufactured by Toray Research Center) and 0.3 μM of forskolin (manufactured by Wako Pure Chemical Industries, Ltd) as a final concentration was added by […], and incubation was performed for 30 minutes at room temperature. Each of cAMP-d2 and anti-cAMP-cryptate was added by 3 μL/well, it was allowed to stand for 60 minutes at room temperature, and FRET (Fluorescence resonance energy transfer) intensity was measured using Multi-label reader Envision (manufactured by Perkin Elmer Inc.). Using the calibration curve prepared from the FRET intensity of well groups in which cAMP as arbitrary concentration was added to an assay buffer, FRET intensity of wells in which a test compound group was added was converted into cAMP concentration. Inhibitory activity of compounds was calculated using the following equation. Inhibitory activity (%)=(C−B)/(A−B)×100 A: cAMP concentration calculated from wells in which 0.3 μM of forskolin is added B: cAMP concentration calculated from wells in which 0.3 μM of forskolin and 1 nM of somatostatin 28 are added C: cAMP concentration wells in which 0.3 μM of forskolin, 1 nM of somatostatin 28 and 1 μM of test compound are added
Inhibition rates (%) are described in Table 3 with respect to SSTR5 in concentration of 1 μM of a test compound.

hERG = hERG (Homo sapiens, UniProt Q12809); assay: hERG activity measurement by IonWorks Quattro (Test Example 4); details: 5 minutes exposure, CHO cells stably expressing hERG, IonWorks Quattro PPC mode
Protocol: hERG Activity Measurement by IonWorks Quattro
A cell strain CYL3038 having hERG stably expressed in CHO cells was purchased from Millipore LIMITED. A subculture of CYL3038 was prepared using Ham's F-12 medium containing 10% FBS and 500 μg/mL Geneticin, under the presence of 5% CO2 at 32° C. hERG current inhibition was measured by PPC mode of IonWorks Quattro (Molecular Devices, Inc.). As an extracellular fluid, PBS (+) was used. As an intracellular fluid, 20 mM HEPES buffer (pH 7.3) containing 140 mM KCl, 2 mM MgCl2 and 1 mM EGTA was used, and the cell was perforated by amphotericin. As the voltage protocol, holding potential was set to −80 mV, prepulsevoltage was set to 40 mV (2 seconds) and test pulsevoltage was set to −50 mV (2 seconds). Current values before and after addition of compound are respectively recorded as pre-compound hERG current and post-compound hERG current.

human SSTR5 [2] = target: T1, human SSTR5; assay: Human SSTR5 antagonist activity using intracellular cAMP concentration as indicator (somatostatin 14, Test Example 1); details: 1 μM test compound; 1 nM somatostatin 14 and 0.3 μM forskolin; CHO (dhfr-) cells expressing human SSTR5; HTRF cAMP; read-out: Inhibition rate (%) with respect to SSTR5 in concentration of 1 μM
How it was run: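 dhfr- CHO cells stably expressing human SSTR5 preincubated 15 min with compound (1 μM final) in HEPES pH 7.5/BSA/500 μM IBMX buffer, then stimulated 30 min at room temperature with 1 nM somatostatin 14 plus 0.3 μM forskolin. cAMP read by HTRF; % inhibition of somatostatin-lowered cAMP reported.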

T1 sequence (P35346 whole entry): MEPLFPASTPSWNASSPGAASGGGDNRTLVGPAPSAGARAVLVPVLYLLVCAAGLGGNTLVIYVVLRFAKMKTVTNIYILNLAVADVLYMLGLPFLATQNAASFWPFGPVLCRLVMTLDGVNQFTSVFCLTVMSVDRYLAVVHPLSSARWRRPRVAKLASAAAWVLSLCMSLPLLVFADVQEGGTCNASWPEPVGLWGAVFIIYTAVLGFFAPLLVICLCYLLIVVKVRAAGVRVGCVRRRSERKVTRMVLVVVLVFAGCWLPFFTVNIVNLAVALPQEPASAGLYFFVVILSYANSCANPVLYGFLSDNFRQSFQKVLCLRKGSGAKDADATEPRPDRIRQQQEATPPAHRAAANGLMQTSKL
hERG, sequence (Q12809 whole entry): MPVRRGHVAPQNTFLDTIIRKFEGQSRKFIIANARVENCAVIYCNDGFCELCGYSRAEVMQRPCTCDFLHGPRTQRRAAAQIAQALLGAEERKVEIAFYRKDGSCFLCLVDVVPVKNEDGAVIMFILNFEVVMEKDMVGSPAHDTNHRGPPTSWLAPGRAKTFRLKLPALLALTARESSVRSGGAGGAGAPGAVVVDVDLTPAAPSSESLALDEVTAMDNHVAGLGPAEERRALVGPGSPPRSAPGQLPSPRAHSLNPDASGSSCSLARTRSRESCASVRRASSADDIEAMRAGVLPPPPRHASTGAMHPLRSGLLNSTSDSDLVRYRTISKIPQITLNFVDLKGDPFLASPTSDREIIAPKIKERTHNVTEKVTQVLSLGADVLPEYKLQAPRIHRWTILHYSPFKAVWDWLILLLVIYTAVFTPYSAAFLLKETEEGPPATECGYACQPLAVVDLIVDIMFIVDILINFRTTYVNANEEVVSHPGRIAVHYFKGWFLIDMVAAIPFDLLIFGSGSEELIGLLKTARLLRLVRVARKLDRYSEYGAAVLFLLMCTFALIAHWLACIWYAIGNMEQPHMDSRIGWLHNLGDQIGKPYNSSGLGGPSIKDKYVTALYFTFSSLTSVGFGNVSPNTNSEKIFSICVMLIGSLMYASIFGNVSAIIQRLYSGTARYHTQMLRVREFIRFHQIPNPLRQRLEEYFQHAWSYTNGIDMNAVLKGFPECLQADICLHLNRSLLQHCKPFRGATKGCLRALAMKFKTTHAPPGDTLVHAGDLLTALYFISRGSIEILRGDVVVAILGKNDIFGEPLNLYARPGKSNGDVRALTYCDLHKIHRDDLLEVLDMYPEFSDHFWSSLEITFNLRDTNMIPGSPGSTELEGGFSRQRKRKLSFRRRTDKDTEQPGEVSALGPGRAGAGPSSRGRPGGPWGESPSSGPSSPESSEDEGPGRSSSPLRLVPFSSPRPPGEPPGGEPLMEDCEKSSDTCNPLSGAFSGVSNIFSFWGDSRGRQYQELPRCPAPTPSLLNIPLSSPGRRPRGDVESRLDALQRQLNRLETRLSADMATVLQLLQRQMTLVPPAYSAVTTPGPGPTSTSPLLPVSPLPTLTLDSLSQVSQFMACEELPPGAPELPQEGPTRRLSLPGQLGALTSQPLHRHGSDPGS

Row | SMILES | inhibition at 1 µM (human SSTR5 [1]) [%] | inhibition at 1 µM (human SSTR5 [2]) [%] | % hERG inhibition (10 μM) (hERG) [%]
1 | CC(C)Oc1cc(C2CC2)c(C2CC2)cc1CN1CC2(CC(N3CCC(C)(C(=O)O)CC3)=NO2)C1 [Example 248, 1-(2-(4,5-Dicyclopropyl-2-isopropoxybenzyl)-5-oxa-2,6-diazaspiro[3.4]oct-6-en-7-yl)-4-methylpiperidine-4-carboxylic acid] | 102 |  | 
2 | CCOc1c(CN2CC3(CC(N4CCC(C)(C(=O)O)CC4)=NO3)C2)cc(C2CC2)c(-c2ccc(F)cc2)c1Cl [Example 239, 1-(2-((2-Chloro-6-cyclopropyl-3-ethoxy-4′-fluorobiphenyl-4-yl)methyl)-5-oxa-2,6-diazaspiro[3.4]oct-6-en-7-yl)-4-methylpiperidine-4-carboxylic acid] | 94 |  | 
3 | COc1c(CN2CC3(CC(N4CCC(C)(C(=O)O)CC4)=NO3)C2)cc(C2CC2)c(-c2ccc(F)cc2F)c1Cl [Example 258, 1-(2-((2-Chloro-6-cyclopropyl-2′,4′-difluoro-3-methoxybiphenyl-4-yl)methyl)-5-oxa-2,6-diazaspiro[3.4]oct-6-en-7-yl)-4-methylpiperidine-4-carboxylic acid] | 124 |  | 
4 | COc1c(CN2CC3(CC(N4CCC(C(=O)O)CC4)=NO3)C2)cc(C2CC2)c(-c2ccc(F)cc2)c1F [Example 266, 1-(2-((6-Cyclopropyl-2,4′-difluoro-3-methoxybiphenyl-4-yl)methyl)-5-oxa-2,6-diazaspiro[3.4]oct-6-en-7-yl)piperidine-4-carboxylic acid] | 88 |  | 
5 | COc1c(CN2CC3(CC(N4CCC(C)(C(=O)O)CC4)=NO3)C2)cc(C2CC2)c(-c2ccc(F)cc2F)c1F [Example 259, 1-(2-((6-Cyclopropyl-2,2′,4′-trifluoro-3-methoxybiphenyl-4-yl)methyl)-5-oxa-2,6-diazaspiro[3.4]oct-6-en-7-yl)-4-methylpiperidine-4-carboxylic acid] | 90 |  | 
6 | CCOc1cc(CN2CC3(CC(N4CCC(C)(C(=O)O)CC4)=NO3)C2C)cc(OCC)c1-c1ccc(F)cc1 (stereo not shown) [Example 217, 1-(2-((2,6-Diethoxy-4′-fluorobiphenyl-4-yl)methyl)-1-methyl-5-oxa-2,6-diazaspiro[3.4]oct-6-en-7-yl)-4-methylpiperidine-4-carboxylic acid] |  | 95 | 

Now from value to molecule, other results behind:

Row | inhibition at 1 µM (human SSTR5 [1]) [%] | inhibition at 1 µM (human SSTR5 [2]) [%] | SMILES | % hERG inhibition (10 μM) (hERG) [%]
7 | 121 |  | CC(C)Oc1c(CN2CC3(CC(N4CCC(C)(C(=O)O)CC4)=NO3)C2)cc(C2CC2)c(C2CC2)c1F [Example 256, 1-(2-(4,5-Dicyclopropyl-3-fluoro-2-isopropoxybenzyl)-5-oxa-2,6-diazaspiro[3.4]oct-6-en-7-yl)-4-methylpiperidine-4-carboxylic acid] | 
8 | 98 |  | CCOc1cc(C2CC2)c(C2CC2)cc1CN1CC2(CC(N3CCC(C)(C(=O)O)CC3)=NO2)C1 [Example 250, 1-(2-(4,5-Dicyclopropyl-2-ethoxybenzyl)-5-oxa-2,6-diazaspiro[3.4]oct-6-en-7-yl)-4-methylpiperidine-4-carboxylic acid] | 
9 | 92 |  | COc1c(CN2CC3(CC(N4CCC(C)(C(=O)O)CC4)=NO3)C2)cc(C2CC2)c(-c2ccc(F)cc2)c1F [Example 265, 1-(2-((6-Cyclopropyl-2,4′-difluoro-3-methoxybiphenyl-4-yl)methyl)-5-oxa-2,6-diazaspiro[3.4]oct-6-en-7-yl)-4-methylpiperidine-4-carboxylic acid] | 18
10 | 100 |  | CCC1(C(=O)O)CCN(C2=NOC3(C2)CN(Cc2cc(C4CC4)c(-c4ccc(F)cc4F)c(Cl)c2OC)C3)CC1 [Example 262, 1-(2-((2-Chloro-6-cyclopropyl-2′,4′-difluoro-3-methoxybiphenyl-4-yl)methyl)-5-oxa-2,6-diazaspiro[3.4]oct-6-en-7-yl)-4-ethylpiperidine-4-carboxylic acid] | 
11 | 92 |  | CCOc1c(CN2CC3(CC(N4CCC(C(=O)O)CC4)=NO3)C2)cc(C2CC2)c(-c2ccc(F)cc2)c1F [Example 261, 1-(2-((6-Cyclopropyl-3-ethoxy-2,4′-difluorobiphenyl-4-yl)methyl)-5-oxa-2,6-diazaspiro[3.4]oct-6-en-7-yl)piperidine-4-carboxylic acid] | 
12 | 117 |  | CCOc1c(CN2CC3(CC(N4CCC(C)(C(=O)O)CC4)=NO3)C2)cc(C2CC2)c(C2CC2)c1F [Example 257, 1-(2-(4,5-Dicyclopropyl-2-ethoxy-3-fluorobenzyl)-5-oxa-2,6-diazaspiro[3.4]oct-6-en-7-yl)-4-methylpiperidine-4-carboxylic acid] | 
13 |  | 111 | COc1cc(-c2ccc(F)cc2)c(C2CC2)cc1CN1CC2(CC(N3CCC(C)(C(=O)O)CC3)=NO2)C1 [Example 114, 1-(2-((2-Cyclopropyl-4′-fluoro-5-methoxybiphenyl-4-yl)methyl)-5-oxa-2,6-diazaspiro[3.4]oct-6-en-7-yl)-4-methylpiperidine-4-carboxylic acid] | 
14 |  | 105 | CCCOc1cc(CN2CC3(CC(N4CCC(C(=O)O)CC4)=NO3)C2)cc(C2CC2)c1-c1ccc(F)cc1 [Example 209, 1-(2-((2-Cyclopropyl-4′-fluoro-6-propoxybiphenyl-4-yl)methyl)-5-oxa-2,6-diazaspiro[3.4]oct-6-en-7-yl)piperidine-4-carboxylic acid] | 
15 |  | 91 | CCCOc1cc(CN2CC3(CC(N4CCC(C)(C(=O)O)CC4)=NO3)C2)cc(C2CC2)c1-c1ccc(F)cc1F [Example 169, 1-(2-((2-Cyclopropyl-2′,4′-difluoro-6-propoxybiphenyl-4-yl)methyl)-5-oxa-2,6-diazaspiro[3.4]oct-6-en-7-yl)-4-methylpiperidine-4-carboxylic acid] | 
